Experimental findings from US12344595B2, “2-amino-n-phenyl-nicotinamides as NAV1.8 inhibitors” (Merck Sharp & Dohme LLC, priority 2018, dated 2025) are described below.

Each structure is given as a SMILES string.

In the test the target is human Nav1.8 (Homo sapiens (Human), UniProt Q9Y5Y9). Put plainly: Nav1.8 Qube automated patch-clamp assay. Type of test: cell-based. The conditions noted are these: Nav1.8 Qube Assay; human Nav1.8 channels stably expressed in HEK 293 cells. The method, then: Qube® Assay Experimental Procedure
Chain of human Nav1.8 (Q9Y5Y9 whole entry): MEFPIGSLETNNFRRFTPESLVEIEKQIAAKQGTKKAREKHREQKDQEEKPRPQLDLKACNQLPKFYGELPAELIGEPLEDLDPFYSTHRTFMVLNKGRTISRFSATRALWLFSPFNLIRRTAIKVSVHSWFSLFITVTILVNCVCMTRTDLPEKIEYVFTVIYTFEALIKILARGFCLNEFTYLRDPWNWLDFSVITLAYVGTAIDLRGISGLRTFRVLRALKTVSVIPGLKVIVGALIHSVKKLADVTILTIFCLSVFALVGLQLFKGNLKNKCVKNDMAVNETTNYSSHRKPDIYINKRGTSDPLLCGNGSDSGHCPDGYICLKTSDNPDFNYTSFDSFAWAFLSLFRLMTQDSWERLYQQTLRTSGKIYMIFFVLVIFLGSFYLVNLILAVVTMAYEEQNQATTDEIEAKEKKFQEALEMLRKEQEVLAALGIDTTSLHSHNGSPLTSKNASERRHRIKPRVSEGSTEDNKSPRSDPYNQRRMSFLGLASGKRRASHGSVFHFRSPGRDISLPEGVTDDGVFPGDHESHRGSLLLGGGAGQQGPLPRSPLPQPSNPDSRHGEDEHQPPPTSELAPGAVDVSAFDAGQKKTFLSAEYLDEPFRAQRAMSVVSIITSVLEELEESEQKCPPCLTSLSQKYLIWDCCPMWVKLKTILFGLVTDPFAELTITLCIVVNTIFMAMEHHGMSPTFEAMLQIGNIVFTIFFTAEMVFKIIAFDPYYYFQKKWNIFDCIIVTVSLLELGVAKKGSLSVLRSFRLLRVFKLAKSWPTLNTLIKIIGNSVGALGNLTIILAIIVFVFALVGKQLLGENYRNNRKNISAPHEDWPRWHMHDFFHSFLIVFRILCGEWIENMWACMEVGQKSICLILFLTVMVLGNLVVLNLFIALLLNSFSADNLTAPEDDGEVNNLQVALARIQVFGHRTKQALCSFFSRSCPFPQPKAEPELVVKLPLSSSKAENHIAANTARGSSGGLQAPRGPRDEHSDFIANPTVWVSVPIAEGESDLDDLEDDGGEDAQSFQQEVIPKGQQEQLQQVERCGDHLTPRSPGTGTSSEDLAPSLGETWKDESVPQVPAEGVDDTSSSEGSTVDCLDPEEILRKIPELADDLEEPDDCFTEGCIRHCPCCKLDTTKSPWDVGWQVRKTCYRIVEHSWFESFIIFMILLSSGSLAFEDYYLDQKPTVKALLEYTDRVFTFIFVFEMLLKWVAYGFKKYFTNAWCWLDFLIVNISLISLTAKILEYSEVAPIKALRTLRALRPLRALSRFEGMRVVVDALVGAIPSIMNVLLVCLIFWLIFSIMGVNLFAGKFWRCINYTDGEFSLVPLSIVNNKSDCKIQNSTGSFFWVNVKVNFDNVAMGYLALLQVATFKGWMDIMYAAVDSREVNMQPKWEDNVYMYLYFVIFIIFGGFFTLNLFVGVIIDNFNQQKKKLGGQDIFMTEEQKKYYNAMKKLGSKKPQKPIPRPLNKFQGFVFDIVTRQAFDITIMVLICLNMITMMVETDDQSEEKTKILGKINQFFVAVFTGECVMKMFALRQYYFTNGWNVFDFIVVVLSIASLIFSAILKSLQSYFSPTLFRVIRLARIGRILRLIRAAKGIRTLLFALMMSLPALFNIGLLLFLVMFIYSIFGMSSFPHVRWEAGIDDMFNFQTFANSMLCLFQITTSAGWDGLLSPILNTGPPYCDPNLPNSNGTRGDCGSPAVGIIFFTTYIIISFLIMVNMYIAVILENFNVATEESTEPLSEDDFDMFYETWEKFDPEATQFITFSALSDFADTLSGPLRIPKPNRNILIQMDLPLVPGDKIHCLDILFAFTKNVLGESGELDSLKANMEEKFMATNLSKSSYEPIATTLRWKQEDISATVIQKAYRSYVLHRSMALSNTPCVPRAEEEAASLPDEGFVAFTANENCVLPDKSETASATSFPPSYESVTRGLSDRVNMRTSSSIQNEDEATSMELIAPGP
Compounds were tested on human Nav1.8 and Nav1.5 channels stably expressed in human embryo kidney (HEK) 293 cells. Sodium current measurements on Qube® were conducted as follows: automated 384-well patch-clamp assays on the Qube® platform (Sophion Biosciences) were used to measure the inhibition of sodium flow through human Nav1.8 and Nav1.5 channels. Whole-cell voltage-clamp recordings were performed in QChips® (Sophion Biosciences) at room temperature. Nav1.8 current measurements on Qube® were obtained as follows: Nav1.8 currents were elicited with a 10 second 1 Hertz (Hz) pulse train from a holding potential of −90 millivolts (mV), delivered to the cells once per minute in the control condition (DMSO only) and after compound addition. The 1 hertz pulse train stimulation consisted of ten test pulses to 10 millivolt (mV) for 20 milliseconds (ms), each of which was followed by a 980 millisecond repolarization to −67 millivolts. At the end of the 10 second pulse train stimulation, a 5 second hyperpolarization step to −100 millivolt (mV) was used to recover Nav1.8 from fast inactivation. The peak currents elicited by the 1st and 10th test pulses were used to determine IC50 values for resting inhibition and inactivated state inhibition. Nav1.5 current measurements on Qube® were obtained as follows: Nav1.5 currents were elicited with a 20 second 3 Hertz pulse train in the control condition (DMSO only) and after compound addition. The pulse train consisted of sixty 20 millisecond test pulses to 0 millivolt from a holding potential of −80 millivolt (mV). The average peak currents elicited by the last 3 test pulses were used to determine IC50 values for Nav1.5 inhibition.
The following buffers were used for the Qube® recordings: External buffer for Nav1.8 Qube® recording: 150 NaCl, 2 CaCl2, 5 KCl, 1 Mg Cl2, 10 HEPES, 12 Dextrose; External buffer for Qube® Nav1.5 recording: 120 N-Methyl-D-Glucamine, 40 NaCl, 1 KCl, 2.7 CaCl2, 5 HEPES, 0.5 MgCl2; and Internal buffer for Qube® recording: 120 CsF, 30 CsCl, 10 EGTA, 5 HEPES, 5 NaF, 2 MgCl2.
For all Qube® experiments offline analysis was used to determine percent inhibition as a function of drug concentration. IC50 values were determined by fitting to the Hill equation.
For orientation: Patch clamp records ionic current or voltage across a cell membrane.
On to `CC(C)(C)c1ccc(C(=O)Nc2cccc(S(N)(=O)=O)c2)c(N2CCCCC2)n1` [Example 42, 6-(tert-butyl)-2-(piperidin-1-yl)-N-(3-sulfamoylphenyl)nicotinamide], for which the IC50 – broadly, the midpoint of a concentration-inhibition curve – is 2680 nM.
On to `NS(=O)(=O)c1cccc(NC(=O)c2cc(C(F)(F)F)cnc2N2CCC3(CC2)CC3)c1` [Example 43, 2-(6-azaspiro[2.5]octan-6-yl)-N-(3-sulfamoylphenyl)-5-(trifluoromethyl)nicotinamide], for which it took 57 nM to reach half-maximal inhibition (IC50).
The same measure for `NS(=O)(=O)c1cccc(NC(=O)c2cc(C(F)(F)F)cnc2N2CCCCCC2)c1` [Example 44, 2-(azepan-1-yl)-N-(3-sulfamoylphenyl)-5-(trifluoromethyl)-pyridine-3-carboxamide]: 9.5 nM; for `NS(=O)(=O)c1cccc(NC(=O)c2cc(C(F)(F)F)cnc2N2CC3CC4CC(C3)CC2C4)c1` [Example 46, N-(3-sulfamoylphenyl)-2-(4-azatricyclo-[4.3.1.13,8]undecan-4-yl)-5-(trifluoromethyl)-nicotinamide]: 12 nM; for `CC1CCN(c2ncc(C(F)(F)F)cc2C(=O)Nc2cccc(S(N)(=O)=O)c2)CC(C)(C)C1` (stereo not drawn) [Example 47, N-(3-sulfamoylphenyl)-5-(trifluoromethyl)-2-(3,3,5-trimethylazepan-1-yl)pyridine-3-carboxamide]: 29 nM.
Next, `COC(=O)C1CCCN(c2ncc(C(F)(F)F)cc2C(=O)Nc2cccc(S(N)(=O)=O)c2)CC1` (stereo not drawn) [Example 48, methyl 1-[3-[(3-sulfamoylphenyl)-carbamoyl]-5-(tri-fluoromethyl)-2-pyridyl]azepane-4-carboxylate]: 161 nM.
Regarding `COC1CCCN(c2ncc(C(F)(F)F)cc2C(=O)Nc2cccc(S(N)(=O)=O)c2)CC1` (stereo not drawn) [Example 49, 2-(4-methoxyazepan-1-yl)-N-(3-sulfamoyl-phenyl)-5-(trifluoro-methyl)pyridine-3-carboxamide], the half-inhibitory concentration (IC50) amounted to 186 nM.
`NS(=O)(=O)c1cccc(NC(=O)c2cc(C(F)(F)F)cnc2N2CCC(C(F)F)CC2)c1` [Example 50, 2-[4-(difluoromethyl)-1-piperidyl]-N-(3-sulfamoylphenyl)-5-(trifluoromethyl)-pyridine-3-carboxamide] yielded an IC50 of 239 nM.
Next, `NS(=O)(=O)c1cccc(NC(=O)c2cc(C(F)(F)F)cnc2N2CCCC(F)(F)C2)c1` [Example 51, 2-(3,3-difluoro-1-piperidyl)-N-(3-sulfamoylphenyl)-5-(trifluoromethyl)-pyridine-3-carboxamide]: 244 nM.
In turn, `NS(=O)(=O)c1cccc(NC(=O)c2cc(C(F)(F)F)cnc2N2CC3CCC(C2)O3)c1` [Example 52, 2-(8-oxa-3-azabicyclo[3.2.1]octan-3-yl)-N-(3-sulfamoyl-phenyl)-5-(trifluoro-methyl)pyridine-3-carboxamide] returned an IC50 of 301 nM.
Next, `CC1(O)CCCN(c2ncc(C(F)(F)F)cc2C(=O)Nc2cccc(S(N)(=O)=O)c2)CC1` (stereo not drawn) [Example 53, 2-(4-hydroxy-4-methyl-azepan-1-yl)-N-(3-sulfamoylphenyl)-5-(trifluoromethyl)-pyridine-3-carboxamide]: 304 nM; `NS(=O)(=O)c1cccc(NC(=O)c2cc(C(F)(F)F)cnc2N2CCCC[C@H](F)C2)c1` [Example 54, 2-[(3S)-3-fluoroazepan-1-yl]-N-(3-sulfamoyl-phenyl)-5-(trifluoro-methyl)pyridine-3-carboxamide]: 338 nM; `NS(=O)(=O)c1cccc(NC(=O)c2cc(C(F)(F)F)cnc2N2CCc3scnc3C2)c1` [Example 55, 2-(6,7-dihydro-4H-thiazol[4,5-c]pyridin-5-yl)-N-(3-sulfamoyl-phenyl)-5-(trifluoro-methyl)pyridine-3-carboxamide]: 405 nM.
Take `NS(=O)(=O)c1cccc(NC(=O)c2cc(C(F)(F)F)cnc2N2CCCOCC2)c1` [Example 56, 2-(1,4-oxazepan-4-yl)-N-(3-sulfamoylphenyl)-5-(trifluoromethyl)-pyridine-3-carboxamide]: the IC50 is 448 nM.
Next, `NS(=O)(=O)c1cccc(NC(=O)c2cc(C(F)(F)F)cnc2N2CC3CCC(C2)O3)c1` [Example 57, 2-(8-oxa-3-azabicyclo[3.2.1]octan-3-yl)-N-(3-sulfamoyl-phenyl)-5-(trifluoro-methyl)pyridine-3-carboxamide]: 575 nM; `NS(=O)(=O)c1cccc(NC(=O)c2cc(C(F)(F)F)cnc2N2CC(C(F)(F)F)C2)c1` [Example 58, N-(3-sulfamoylphenyl)-5-(trifluoromethyl)-2-[3-(trifluoromethyl)-azetidin-1-yl]pyridine-3-carboxamide]: 616 nM.
`NS(=O)(=O)c1cccc(NC(=O)c2cc(C(F)(F)F)cnc2N2CC3CCCC32)c1` (stereo not drawn) [Example 59, 2-(6-azabicyclo[3.2.0]heptan-6-yl)-N-(3-sulfamoyl-phenyl)-5-(trifluoro-methyl)pyridine-3-carboxamide] yielded an IC50 of 698 nM.
`NS(=O)(=O)c1cccc(NC(=O)c2cc(C(F)(F)F)cnc2N2CCC(F)(F)C2)c1` [Example 60, 2-(3,3-difluoropyrrolidin-1-yl)-N-(3-sulfamoyl-phenyl)-5-(trifluoromethyl) pyridine-3-carboxamide] gave an IC50 of 737 nM.
The molecule `COC(=O)C1CCN(c2ncc(C(F)(F)F)cc2C(=O)Nc2cccc(S(N)(=O)=O)c2)CC1` [Example 61, methyl 1-[3-[(3-sulfamoylphenyl)carbamoyl]-5-(trifluoro-methyl)-2-pyridyl]-piperidine-4-carboxylate] had an IC50 of 1620 nM.
Next, `NS(=O)(=O)c1cccc(NC(=O)c2cc(C(F)(F)F)cnc2N2CCC(F)C2)c1` (stereo not drawn) [Example 62, 2-(3-fluoropyrrolidin-1-yl)-N-(3-sulfamoyl-phenyl)-5-(trifluoro-methyl)pyridine-3-carboxamide]: 1830 nM; `NS(=O)(=O)c1cccc(NC(=O)c2cc(C(F)(F)F)cnc2N2CCCC2)c1` [Example 63, 2-pyrrolidin-1-yl-N-(3-sulfamoylphenyl)-5-(trifluoromethyl)pyridine-3-carboxamide]: 2000 nM.
The same measure for `NS(=O)(=O)c1cccc(NC(=O)c2cc(C(F)(F)F)cnc2N2CC3COC(C3)C2)c1` (stereo not drawn) [Example 64, 2-(6-oxa-3-azabicyclo[3.2.1]octan-3-yl)-N-(3-sulfamoyl-phenyl)-5-(trifluoro-methyl)pyridine-3-carboxamide]: 2160 nM; for `NS(=O)(=O)c1cccc(NC(=O)c2cc(C(F)(F)F)cnc2N2CCCC(O)CC2)c1` (stereo not drawn) [Example 65, 2-(4-hydroxyazepan-1-yl)-N-(3-sulfamoyl-phenyl)-5-(trifluoro-methyl)pyridine-3-carboxamide]: 2210 nM.
Molecule `COC1CCN(c2ncc(C(F)(F)F)cc2C(=O)Nc2cccc(S(N)(=O)=O)c2)CC1` [Example 66, 2-(4-methoxy-1-piperidyl)-N-(3-sulfamoylphenyl)-5-(trifluoromethyl) pyridine-3-carboxamide] showed an IC50 of 2610 nM.
`COC(=O)C1CCCCN(c2ncc(C(F)(F)F)cc2C(=O)Nc2cccc(S(N)(=O)=O)c2)C1` (stereo not drawn) [Example 67, methyl 1-[3-[(3-sulfamoylphenyl)carbamoyl]-5-(trifluoro-methyl)-2-pyridyl]-azepane-3-carboxylate] gave an IC50 of 2980 nM.
In turn, `CC(C)CC1CCCCCN1c1ncc(C(F)(F)F)cc1C(=O)Nc1cccc(S(N)(=O)=O)c1` (stereo not drawn) [Example 68, 2-(2-isobutylazepan-1-yl)-N-(3-sulfamoyl-phenyl)-5-(trifluoro-methyl)pyridine-3-carboxamide] displayed an IC50 of 3650 nM.
The same measure for `NS(=O)(=O)c1cccc(NC(=O)c2cc(C(F)(F)F)cnc2N2CCOCC2)c1` [Example 69, 2-morpholino-N-(3-sulfamoylphenyl)-5-(trifluoromethyl) pyridine-3-carboxamide]: 4060 nM; for `NS(=O)(=O)c1cccc(NC(=O)c2cc(C(F)(F)F)cnc2N2CCS(=O)(=O)CC2)c1` [Example 70, 2-(1,1-dioxo-1,4-thiazinan-4-yl)-N-(3-sulfamoylphenyl)-5-(trifluoromethyl)pyridine-3-carboxamide]: 5480 nM.
As to `NS(=O)(=O)c1cccc(NC(=O)c2cc(C(F)(F)F)cnc2N2CCC3(CCCO3)CC2)c1` [Example 72, 2-(1-oxa-8-azaspiro[4.5]decan-8-yl)-N-(3-sulfamoyl-phenyl)-5-(trifluoro-methyl)pyridine-3-carboxamide], the IC50 worked out at 6610 nM.
Next, `Cc1nc2c(o1)CCN(c1ncc(C(F)(F)F)cc1C(=O)Nc1cccc(S(N)(=O)=O)c1)C2` [Example 73, 2-(2-methyl-6,7-dihydro-4H-oxazolo[4,5-c]pyridin-5-yl)-N-(3-sulfamoyl-phenyl)-5-(trifluoro-methyl)pyridine-3-carboxamide]: 8390 nM.
